# Data as given in ChEMBL document CHEMBL1201862, “PubChem BioAssay data set” (2004).
#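 Results reflect a 48-hour exposure of cells in 96-well plates to compound at five concentrations. The concentration for 50% growth inhibition is given as GI50.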 The source made the active and inactive calls. Cut-off read from the data, not from the text of the source: active = GI50 up to about 1.1 µM and inactive = higher.
# How the values were obtained:
# Assay in all cases: NCI-60 cell line screen, 48 h
# [1] = tested on: EKVX
# [2] = tested on: RXF 631
# [3] = tested on: UACC-257
# [4] = tested on: OVCAR-5
# [5] = tested on: 786-0
# [6] = tested on: LXFL 529
# [7] = tested on: KM-20L2
# [8] = tested on: U-251
# [9] = tested on: K562
# [10] = tested on: HOP-92
# [11] = tested on: SNB-75
# [12] = tested on: CAKI-1
# [13] = tested on: A549
# [14] = tested on: IGROV-1
# [15] = tested on: SK-OV-3
# [16] = tested on: UO-31
# [17] = tested on: A498
# [18] = tested on: HOP-62
# [19] = tested on: SF-268
# [20] = tested on: NCI-H23
# [21] = tested on: SNB-78
# [22] = tested on: KM12
# [23] = tested on: SNB-19
# [24] = tested on: DLD-1
# [25] = tested on: SF-295
# [26] = tested on: RXF 393
# [27] = tested on: OVCAR-4
# [28] = tested on: SK-MEL-5
# [29] = tested on: ACHN
# [30] = tested on: Malme-3M
# [31] = tested on: RPMI-8226
# [32] = tested on: TK-10
# [33] = tested on: SN12C
# [34] = tested on: HT-29
# [35] = tested on: COLO 205
# [36] = tested on: HCT-15
# [37] = tested on: SF-539
# [38] = tested on: SW-620
# [39] = tested on: NCI-H226
# [40] = tested on: CCRF-CEM
# [41] = tested on: OVCAR-8
# [42] = tested on: SK-MEL-28
# [43] = tested on: SR
# [44] = tested on: M14
# [45] = tested on: MOLT-4
# [46] = tested on: HL-60
# [47] = tested on: UACC-62
# [48] = tested on: M19-MEL
# [49] = tested on: OVCAR-3
# [50] = tested on: HCT-116
# [51] = tested on: NCI-H460
# [52] = tested on: HCC 2998
# [53] = tested on: LOX IMVI
# [54] = tested on: SK-MEL-2
# [55] = tested on: XF498
smiles,measurement,setting,value
O=C(Nc1nc2ccc([N+](=O)[O-])cc2s1)C(=O)C(C1OC(=O)c2ccccc21)[N+](=O)[O-] (stereo not given),GI50,[1],31.5 µM (inactive)
same,GI50,[2],70.1 µM (inactive)
same,GI50,[3],> 100 µM (inactive)
same,GI50,[4],> 100 µM (inactive)
same,GI50,[5],> 100 µM (inactive)
same,GI50,[6],85.1 µM (inactive)
same,GI50,[7],> 100 µM (inactive)
same,GI50,[8],82.8 µM (inactive)
same,GI50,[9],83.4 µM (inactive)
same,GI50,[10],20.4 µM (inactive)
same,GI50,[11],35.6 µM (inactive)
same,GI50,[12],70.1 µM (inactive)
same,GI50,[13],> 100 µM (inactive)
same,GI50,[14],42.2 µM (inactive)
same,GI50,[15],54.3 µM (inactive)
same,GI50,[16],20.3 µM (inactive)
same,GI50,[17],12.6 µM (inactive)
same,GI50,[18],31.9 µM (inactive)
same,GI50,[19],76.9 µM (inactive)
same,GI50,[20],55.2 µM (inactive)
same,GI50,[21],85.5 µM (inactive)
same,GI50,[22],> 100 µM (inactive)
same,GI50,[23],58.6 µM (inactive)
same,GI50,[24],64.6 µM (inactive)
same,GI50,[25],91.2 µM (inactive)
same,GI50,[26],27.5 µM (inactive)
same,GI50,[27],> 100 µM (inactive)
same,GI50,[28],64.6 µM (inactive)
same,GI50,[29],39.3 µM (inactive)
same,GI50,[30],> 100 µM (inactive)
same,GI50,[31],56.2 µM (inactive)
same,GI50,[32],69.2 µM (inactive)
same,GI50,[33],75 µM (inactive)
same,GI50,[34],> 100 µM (inactive)
same,GI50,[35],> 100 µM (inactive)
same,GI50,[36],66.7 µM
same,GI50,[37],49.9 µM (inactive)
same,GI50,[38],> 100 µM (inactive)
same,GI50,[39],55.8 µM (inactive)
same,GI50,[40],63.2 µM (inactive)
same,GI50,[41],> 100 µM (inactive)
same,GI50,[42],> 100 µM (inactive)
same,GI50,[43],54.1 µM (inactive)
same,GI50,[44],> 100 µM (inactive)
same,GI50,[45],88.5 µM (inactive)
same,GI50,[46],63.2 µM (inactive)
same,GI50,[47],65.8 µM (inactive)
same,GI50,[48],> 100 µM (inactive)
same,GI50,[49],71 µM (inactive)
same,GI50,[50],97.5 µM (inactive)
same,GI50,[51],> 100 µM (inactive)
same,GI50,[52],> 100 µM (inactive)
same,GI50,[53],> 100 µM (inactive)
same,GI50,[54],41.5 µM (inactive)
same,GI50,[55],27.6 µM (inactive)
